Test results taken from ChEMBL document CHEMBL3885881, “DrugMatrix”.

Organism: Rattus norvegicus
Assay: DrugMatrix - Regimen: Daily Repeat
Format: toxicity, organism-based, Sprague-Dawley
Design: regimen Daily Repeat, gender Male, age 6-8 weeks
Details: in vivo, iv, vehicle 100 % SALINE; for ABSOLUTE MONOCYTE / ABSOLUTE SEGMENTED NEUTROPHIL / BASOPHIL / EOSINOPHIL / ERYTHROCYTE COUNT / HEMATOCRIT / HEMOGLOBIN / LEUKOCYTE COUNT / LYMPHOCYTE / MEAN CORPUSCULAR HEMOGLOBIN / MEAN CORPUSCULAR HEMOGLOBIN CONCENTRATION / MEAN CORPUSCULAR VOLUME / MONOCYTE / NEUTROPHIL / NUCLEATED RED BLOOD CELLS / PLATELET COUNT / ABSOLUTE BASOPHIL / ABSOLUTE EOSINOPHIL / ABSOLUTE LYMPHOCYTE: tissue Blood; for ALANINE AMINOTRANSFERASE / ALBUMIN / ALKALINE PHOSPHATASE / ASPARTATE AMINOTRANSFERASE / BLOOD UREA NITROGEN / CARBON DIOXIDE / CHLORIDE / CHOLESTEROL / CREATINE PHOSPHOKINASE / CREATININE / GLUCOSE / LACTATE DEHYDROGENASE / LIPASE / PHOSPHORUS / POTASSIUM / SODIUM / TOTAL BILIRUBIN / TOTAL PROTEIN / URIC ACID: tissue Plasma
[1] = 20 mg/kg, 120 h, dose level Low, time 5 day
[2] = 82 mg/kg, 72 h, dose level High, time 3 day
[3] = 82 mg/kg, 120 h, dose level High, time 5 day

NCC[C@H](O)C(=O)N[C@@H]1C[C@H](N)[C@@H](O[C@H]2O[C@H](CN)[C@@H](O)[C@H](O)[C@H]2O)[C@H](O)[C@H]1O[C@H]1O[C@H](CO)[C@@H](O)[C@H](N)[C@H]1O [AMIKACIN]
ABSOLUTE MONOCYTE [1]: 11 CELLS/uL
ABSOLUTE SEGMENTED NEUTROPHIL [1]: 480 CELLS/uL
BASOPHIL [1]: 0%
EOSINOPHIL [1]: 0%
ERYTHROCYTE COUNT [1]: 5.48 x10E6/uL
HEMATOCRIT [1]: 33%
HEMOGLOBIN [1]: 12.63 G/DL
LEUKOCYTE COUNT [1]: 3.67 x10E3/uL
LYMPHOCYTE [1]: 86.67%
MEAN CORPUSCULAR HEMOGLOBIN [1]: 23 pg
MEAN CORPUSCULAR HEMOGLOBIN CONCENTRATION [1]: 38.3 G/DL
MEAN CORPUSCULAR VOLUME [1]: 60.1 fL
MONOCYTE [1]: 0.33%
NEUTROPHIL [1]: 13%
NUCLEATED RED BLOOD CELLS [1]: 0 /100WBC
PLATELET COUNT [1]: 622.33 x10E3/uL
ALANINE AMINOTRANSFERASE [1]: 72.67 u/L
ALBUMIN [1]: 3.63 G/DL
ALKALINE PHOSPHATASE [1]: 187.33 u/L
ASPARTATE AMINOTRANSFERASE [1]: 329.33 u/L
BLOOD UREA NITROGEN [1]: 16 mg/dL
CARBON DIOXIDE [1]: 32.67 mmol/L
CHLORIDE [1]: 98.67 MEQ/L
CHOLESTEROL [1]: 81.33 mg/dL
CREATINE PHOSPHOKINASE [1]: 388 u/L
CREATININE [1]: 0.13 mg/dL
GLUCOSE [1]: 162.67 mg/dL
LACTATE DEHYDROGENASE [1]: 112 u/L
LIPASE [1]: 9.67 u/L
PHOSPHORUS [1]: 10.23 mg/dL
POTASSIUM [1]: 5.93 MEQ/L
SODIUM [1]: 142.37 MEQ/L
TOTAL BILIRUBIN [1]: 0.1 mg/dL
TOTAL PROTEIN [1]: 5.3 G/DL
URIC ACID [1]: 0.53 mg/dL
ABSOLUTE BASOPHIL [2]: 0 CELLS/uL
ABSOLUTE EOSINOPHIL [2]: 29 CELLS/uL
ABSOLUTE LYMPHOCYTE [2]: 10165.67 CELLS/uL
ABSOLUTE MONOCYTE [2]: 121.67 CELLS/uL
ABSOLUTE SEGMENTED NEUTROPHIL [2]: 950.33 CELLS/uL
BASOPHIL [2]: 0%
EOSINOPHIL [2]: 0.33%
ERYTHROCYTE COUNT [2]: 5.81 x10E6/uL
HEMATOCRIT [2]: 35.97%
HEMOGLOBIN [2]: 13.7 G/DL
LEUKOCYTE COUNT [2]: 11.27 x10E3/uL
LYMPHOCYTE [2]: 90%
MEAN CORPUSCULAR HEMOGLOBIN [2]: 23.6 pg
MEAN CORPUSCULAR HEMOGLOBIN CONCENTRATION [2]: 38.1 G/DL
MEAN CORPUSCULAR VOLUME [2]: 61.93 fL
MONOCYTE [2]: 1%
NEUTROPHIL [2]: 8.67%
NUCLEATED RED BLOOD CELLS [2]: 0.33 /100WBC
PLATELET COUNT [2]: 1125.33 x10E3/uL
ALANINE AMINOTRANSFERASE [2]: 50.67 u/L
ALBUMIN [2]: 4.17 G/DL
ALKALINE PHOSPHATASE [2]: 370.33 u/L
ASPARTATE AMINOTRANSFERASE [2]: 84 u/L
BLOOD UREA NITROGEN [2]: 14.33 mg/dL
CARBON DIOXIDE [2]: 35 mmol/L
CHLORIDE [2]: 98.67 MEQ/L
CHOLESTEROL [2]: 74.33 mg/dL
CREATINE PHOSPHOKINASE [2]: 385.33 u/L
CREATININE [2]: 0.18 mg/dL
GLUCOSE [2]: 178.33 mg/dL
LACTATE DEHYDROGENASE [2]: 142.67 u/L
LIPASE [2]: 9 u/L
PHOSPHORUS [2]: 11.27 mg/dL
POTASSIUM [2]: 6 MEQ/L
SODIUM [2]: 143.33 MEQ/L
TOTAL BILIRUBIN [2]: 0.2 mg/dL
TOTAL PROTEIN [2]: 5.97 G/DL
URIC ACID [2]: 0.7 mg/dL
ABSOLUTE BASOPHIL [3]: 0 CELLS/uL
ABSOLUTE EOSINOPHIL [3]: 0 CELLS/uL
ABSOLUTE LYMPHOCYTE [3]: 6237.33 CELLS/uL
ABSOLUTE MONOCYTE [3]: 19 CELLS/uL
ABSOLUTE SEGMENTED NEUTROPHIL [3]: 743.67 CELLS/uL
BASOPHIL [3]: 0%
EOSINOPHIL [3]: 0%
ERYTHROCYTE COUNT [3]: 5.27 x10E6/uL
HEMATOCRIT [3]: 33.87%
HEMOGLOBIN [3]: 13.13 G/DL
LEUKOCYTE COUNT [3]: 7 x10E3/uL
LYMPHOCYTE [3]: 89.33%
MEAN CORPUSCULAR HEMOGLOBIN [3]: 24.93 pg
MEAN CORPUSCULAR HEMOGLOBIN CONCENTRATION [3]: 38.8 G/DL
MEAN CORPUSCULAR VOLUME [3]: 64.2 fL
MONOCYTE [3]: 0.33%
NEUTROPHIL [3]: 10.33%
NUCLEATED RED BLOOD CELLS [3]: 0.33 /100WBC
PLATELET COUNT [3]: 1177.67 x10E3/uL
ALANINE AMINOTRANSFERASE [3]: 59.67 u/L
ALBUMIN [3]: 3.9 G/DL
ALKALINE PHOSPHATASE [3]: 382 u/L
ASPARTATE AMINOTRANSFERASE [3]: 82 u/L
BLOOD UREA NITROGEN [3]: 17.33 mg/dL
CARBON DIOXIDE [3]: 32.33 mmol/L
CHLORIDE [3]: 100 MEQ/L
CHOLESTEROL [3]: 63.67 mg/dL
CREATINE PHOSPHOKINASE [3]: 235.67 u/L
CREATININE [3]: 0.15 mg/dL
GLUCOSE [3]: 160.67 mg/dL
LACTATE DEHYDROGENASE [3]: 113.33 u/L
LIPASE [3]: 9.33 u/L
PHOSPHORUS [3]: 10.73 mg/dL
POTASSIUM [3]: 5.04 MEQ/L
SODIUM [3]: 143.97 MEQ/L
TOTAL BILIRUBIN [3]: 0.17 mg/dL
TOTAL PROTEIN [3]: 5.83 G/DL
URIC ACID [3]: 0.5 mg/dL
